Laboratory results taken from US11110195B2, “Esculentin 1a derivatives and uses thereof” (University of Houston System, priority 2013, dated 2021).
Residues, ends and D or L forms follow the SMILES beside them.

What was measured:
[1] = tested on: P. aeruginosa ATCC 27853; conditions: soluble free form, 1 μM, within 20 minutes in PBS
[2] = tested on: Pseudomonas aeruginosa ATCC 19660 induced keratitis; assay: Clinical grading of Pseudomonas keratitis in mice; format: in vivo, C57BL/6 mice; conditions: scale 0-4
Experimental: C57BL/6 mice were infected in one eye with P. aeruginosa ATCC 19660 and treated with 40 μM Esc-1a(1-21)NH2 or vehicle control (PBS). In some animals (Pre-trt group) treatment with Esc-1a(1-21)NH2 was initiated 24 hrs prior to infection. […] There was no significant difference between the Esc-1a(1-21)NH2 pretreatment group and when treatment was begun after infection.
(§1) To determine a clinical score, neutrophil infiltration by myeloperoxidase assay (MPO assay) and viable bacterial cell counts in infected and control corneas of C57BL/6 mice with Pseudomonas aeruginosa ATCC 19660 keratitis following pre-treatment and post-infection treatment with Esc-1a(1-21)NH2 up to 5 days post-infection (PI) the following experiment was performed. In these experiments pre-treatment refers to a group of animals where treatment was initiated 24 hrs before infection then continued after infection.
Images of the uninfected control and infected eye were taken on days 1, 3 and 5 PI using a camera equipped slit lamp biomicroscope. Clinical grading of infection on days 1, 3 and 5 PI was by visualizing through a slit lamp and using an established grading scale (Table 2). A myeloperoxidase assay was used to quantitate the polymorphonuclear cell numbers in the infected and control corneas (data presented in FIG. 6). Viable counts for bacteria were recovered from corneas at day 1, 3 and 5 PI (FIG. 7).
1. IP injections of ketamine and xylazine mixture were given (final dose 100 and 10 mg/kg respectively) to anesthetize the mice.
2. Pre-treatment group-5 μl of peptide (40 μM) was instilled topically onto intact corneas—3 times in 24 h.
3. Day 0—Day of infection: • a. 3×1 mm parallel scratches were made at the center of the right cornea of the mice using a 271/2 gauge needle and 5 μl of P. aeruginosa ATCC19660 bacterial solution (1×10^6 CFU) was pipetted on the wounded cornea. • b. Topically pipetted 5 μl of 40 μM Esc-1a(1-21)NH2 or vehicle (PBS) on the cornea 2-times on Day 0 starting 5 hours after bacterial infection.
4. Day 1 post-infection: • a. Captured images and graded the infection using a slit lamp biomicroscope. • b. Harvested corneas from 2 mice per group, pooled the corneas and processed them to perform the MPO assay. • c. Instilled peptide or vehicle three times/24 hrs (6.30 am, 1.30 pm, 8.30 pm).
5. Repeated the peptide or vehicle treatment 3 times a day for the next 4 days.
6. In addition, captured images, graded the infection and repeated the MPO assay on Day 3 and 5 post-infection.
The mean clinical scores for the Esc-1a(1-21)NH2 treated and PBS vehicle control group at day 1, 3 and 5 PI obtained from 4 separate experiments where the size of inoculum was 1*10^6 CFU/5 μl were plotted (FIG. 5).

[3] = tested on: Pseudomonas aeruginosa ATCC 19660; assay: Viable bacterial count in infected corneas; format: in vivo, C57BL/6 mice; conditions: for difference in viable bacterial counts vs PBS control: pre-treated or treated groups; for viable bacterial count in cornea: pre-treated
Text: Corneas were harvested 1, 3 and 5 days after infection and the number of surviving bacteria determined. […] P1=post infection; Pre-trt=pretreatment with Esc-1a(1-21)NH2. *Indicates significant difference, p<0.05, among PBS control and peptide treated groups.
as §1
To quantitate viable bacteria, a 100 μl aliquot from the corneal homogenates was serially diluted 1:10 in sterile PBS. Duplicate aliquots (20 μl) of each dilution, including the original homogenate, were plated onto nutrient agar. Plates were incubated for 14-16 h at 37° C.
The harvested corneas were homogenized, plated on growth media and the bacterial colonies recovered counted 14-18 hours post plating. Data plotted (FIG. 7) show the viable bacterial counts obtained from an average of 3 independent experiments.

[4] = tested on: Raw 264.7 macrophages; assay: MTT viability assay, Raw 264.7 macrophages; conditions: 128 μM, 24 h incubation
Experimental: (§2) Cell viability is expressed as percentage with respect to the control (cells not treated with the peptides). Data points represent the mean of triplicate samples ±SEM. […] The levels of statistical significance between the two peptides are indicated as follows: **p<0.01, ***p<0.001.
(§3) Cells were plated in wells of a microtiter plate, at 4×10^4 cells/well in DMEM supplemented with 2 mM glutamine and 2% FBS (for A549 cells) or DMEM containing 2 mM glutamine, non-essential amino acids (NEAA), sodium pyruvate and 2% FBS (for Raw 264.7 macrophages). After overnight incubation at 37° C. in a 5% CO2 atmosphere, the medium was replaced with 100 μl fresh serum-free medium supplemented with the peptides at different concentrations. After 24 h of peptide treatment, cell viability was determined by a MTT assay.

[5] = MTT viability assay, Raw 264.7 macrophages; conditions: mouse, Raw 264.7 macrophages
Experimental: as §2, §3

[6] = tested on: TNF-α secretion from LPS-stimulated RAW264.7 macrophages; assay: Anti-endotoxin activity: TNF-α release from LPS-stimulated macrophages (ELISA); format: cell-based, murine; conditions: LPS 10 ng/ml, 4 hours
Experimental: RAW264.7 cells were stimulated with LPS (10 ng/ml) derived from P. aeruginosa 10 in the presence of 1, 5, 10 and 20 μM Esc-1a(1-21)NH2 for 4 hours at 37° C. and 5% CO2. The percentage of inhibition of TNF-α release was normalized to that of macrophages stimulated with LPS without peptide (0% inhibition).
Macrophages (Raw 264.7) were cultured overnight in 96-well plates (1×10^5 cells/well) in DMEM supplemented with 2 mM L-glutamine, 1 mM sodium pyruvate, non-essential amino acids (NEAA), and 10% FBS. The medium was then removed and replaced with fresh medium containing LPS (10 ng/ml final concentration) and the peptide at different concentrations. Cells were incubated at 37° C. for 4 h, after which the medium was collected and TNF-α concentration in the samples was evaluated using a mouse TNF-α enzyme-linked immunosorbant assay kit according to the manufacturer's protocol (ELISA, Biosource). Cells that were stimulated with LPS alone, and untreated cells served as controls. All experiments were done in triplicate.

Work on CC[C@H](C)[C@H](NC(=O)CN)C(=O)N[C@@H](Cc1ccccc1)C(=O)N[C@@H](CO)C(=O)N[C@@H](CCCCN)C(=O)N[C@@H](CC(C)C)C(=O)N[C@@H](C)C(=O)NCC(=O)N[C@@H](CCCCN)C(=O)N[C@@H](CCCCN)C(=O)N[C@H](C(=O)N[C@@H](CCCCN)C(=O)N[C@@H](CC(N)=O)C(=O)N[C@@H](CC(C)C)C(=O)N[C@@H](CC(C)C)C(=O)N[C@H](C(=O)N[C@@H](CO)C(=O)NCC(=O)N[C@@H](CC(C)C)C(=O)N[C@@H](CCCCN)C(=O)NCC(N)=O)[C@@H](C)CC)[C@@H](C)CC [Esc-1a(1-21)NH2] (H-GIFSKLAGKKIKNLLISGLKG-NH2; N-terminus assumed) yielded a killing [1] of about 99.9%, a mean clinical score ([2]; pre-treated (40 μM topical from 24 h before infection), day 1 PI) of 1.37±0.07 and a mean clinical score ([2]; pre-treated, day 3 PI) of 2.29±0.17. It also gave a mean clinical score ([2]; pre-treated, day 5 PI) of 2.86±0.20, a mean clinical score ([2]; treated after infection (40 μM topical), day 1 PI) of 1.38±0.22 and a mean clinical score ([2]; treated after infection, day 3 PI) of 2.36±0.24. For the same compound, the mean clinical score ([2]; treated after infection, day 5 PI) was 2.89±0.26, the “difference in viable bacterial counts vs PBS control” value ([3]; day 5 PI) was 4 log10 and the “difference in viable bacterial counts vs PBS control” value ([3]; days 1 and 3 PI) was 2-3 log10 CFU. For the same compound, the “viable bacterial count in cornea” value ([3]; day 1 PI) was 3.35 log10 CFU, the “viable bacterial count in cornea” value ([3]; day 3 PI) was 3.7 log10 CFU and the “viable bacterial count in cornea” value ([3]; day 5 PI) was 3.47 log10 CFU. The killing [4] was 100%, the CC50 at 24 h [5] was 64 µM and the “inhibition of TNF-α secretion” value ([6]; 10 μM peptide) was about 80%. The “inhibition of TNF-α secretion” value ([6]; 20 μM peptide) was about 90%.
